The target of one test is T1, Factor VIIa (Homo sapiens, UniProt P08709).
T1 construct: purchased Haemochrom Diagnostica GmbH (Essen, D)
T1 sequence (P08709 213-466 limits assumed): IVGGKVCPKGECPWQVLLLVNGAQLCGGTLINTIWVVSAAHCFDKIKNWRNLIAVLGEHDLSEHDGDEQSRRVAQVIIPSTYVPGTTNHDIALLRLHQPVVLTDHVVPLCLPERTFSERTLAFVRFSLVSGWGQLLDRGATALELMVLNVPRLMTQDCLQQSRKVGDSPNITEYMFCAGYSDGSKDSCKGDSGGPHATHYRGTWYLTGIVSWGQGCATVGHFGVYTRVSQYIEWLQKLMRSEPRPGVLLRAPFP
T1 sequence (P08709 61-212 partner limits assumed): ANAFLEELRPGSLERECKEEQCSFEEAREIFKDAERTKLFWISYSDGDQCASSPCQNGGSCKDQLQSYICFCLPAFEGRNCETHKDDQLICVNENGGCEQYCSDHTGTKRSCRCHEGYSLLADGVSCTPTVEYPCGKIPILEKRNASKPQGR
As to the kind of experiment: Determination of Ki values, chromogenic substrate, Dixon evaluation: Factor VIIa. In kind it is biochemical. The conditions noted are these: 25° C., tris buffer pH 8.0, substrate CH3SO2-D-phe-Gly-Arg-pNA. The text has this: The inhibitors used here are the commercially available exemplary inhibitors Pefabloc tPA/Xa (2,7-bis(4-amidinobenzylidene)-cyclopeptanone-(1), Pentapharm Ltd. Basel, Switzerland), CJ-FXa (benzylsulphonyl-D-arginyl-glycyl-4-amidinobenzylamide, Haemochrom GmbH, Essen, Germany) and CJ-PK (benzylsulphonyl-D-seryl-carbobenzoxylsyl-4-amidinobenzylamide, Haemochrom GmbH, Essen, Germany). Research samples were available of DX-9065a ((+)-(2S)-2-[4-[[3S)-1-acetimidoyl-3-pyrrodinyl]oxy]phenyl]-3-[7-amidino-2-naphthyl]propanic acid, Daiichi Pharmaceutical Company Ltd., Tokyo, Japan), and Otamixaban (2-(R)-(3-carbamimidoylbenyzyl)-3-(R)-[4-(1-oxypyridin-4-yl)benzoylamino]-butyric acid-methylester, Sanofi-Aventis GmbH, Frankfurt, Germany), both of which are undergoing clinical tests. In order to examine the inhibitory action of these exemplarily used inhibitors on the blood coagulation factors plasma-kallikrein, VIIa, Xa, XIa and XIIa, the Ki values of the respective enzyme-inhibitor complexes were determined.
The enzymes were produced by Haemochrom Diagnostica GmbH (Essen, D) and were dissolved in 0.154 mol/l NaCl. The substrates (Pentapharm AG, Basel, CH) were dissolved in H2O and the inhibitor was dissolved in the above-mentioned tris buffer. The following substrates were used for the individual enzymes:
200 μl of inhibitor solution were mixed with 25 μl of substrate for the determination and the reaction was started by the addition of 50 μl of enzyme. After a reaction time of 3-5 mins. 25 μl of acetic acid (50%) were added and the extinction was measured at 405 nm with a microplate reader (iEMS Reader MF 12401, Labsystems, Helsinki, Finland). The evaluation was carried out graphically according to Dixon (Biochem. J., 55, 170, 1953).
The enzymes were produced by Haemochrom Diagnostica GmbH (Essen, D), and only thrombin was manufactured in our own laboratory according to Walsmann (Pharmazie 23, 401-402, 1968). All the enzymes were dissolved in 0.154 mol/l NaCl. The substrates (Pentapharm AG, Basel, CH) were dissolved in H2O and the inhibitor was dissolved in the above-mentioned tris buffer. The following substrates were used for the individual enzymes:
200 μl of inhibitor solution were mixed with 25 μl of substrate for the determination and the reaction was started by the addition of 50 μl of enzyme. After a reaction time of 3-5 mins. 25 μl of acetic acid (50%) were added and the extinction was measured at 405 nm with a microplate reader (iEMS Reader MF 1401, Labsystems, Helsinki, Finland). The evaluation was carried out graphically according to Dixon (Biochem. J., 55, 170, 1953).

A further test concerns thrombin formation. As to the kind of experiment: Inhibition of thrombin formation (prothrombin fragment F1+2) in hirudin-anticoagulated plasma after activation by kaolin. The conditions noted are these: 37° C. In kind it is biochemical, human. On the procedure:
In this example thrombin formation was activated in plasma anticoagulated with hirudin by the addition of kaolin and the ability of the inhibitors to inhibit thrombin formation was examined.
Blood sampled from a patient was initially anticoagulated by means of the thrombin inhibitor hirudin. For this purpose 9 parts of blood were mixed with 1 part of hirudin solution (recombinant hirudin HBW 023, Hoechst, Frankfurt, 2000 E/ml of physiological NaCl solution), then centrifuged for 10 minutes at 1300 revolutions per minute (rpm). 900 μl of the plasma anticoagulated with hirudin, present in excess, were mixed in polypropylene tubes with 50 μl of inhibitor solution or 0.9% NaCl solution and 50 μl kaolin suspension (from APTT-Test from Roche Diagnostics, diluted 1:250 before use with physiological NaCl solution), and incubated at 37° C. with light shaking. In this case kaolin acts as a non-physiological surface which activates the blood coagulation thereby finally stimulating thrombin formation. At certain times the quantity of the thrombin formed was determined immunologically on the basis of the formation of the prothrombin fragment F1+2 (Enzygnost F1+2 micro, Dade Behring GmbH, Marburg). This determination is based on an enzyme immunoassay according to the sandwich principle. For this purpose aliquot volumes (600 μl) were anticoagulated at certain times with 0.1 M EDTA (40 μl) and kept at −20° C. To determine the concentration of the prothrombin fragment F1+2 50 μl of plasma (if necessary diluted with PBS, phosphate-buffered saline) were incubated with monoclonal antibodies against the human prothrombin fragment F1+2, which were fixed on a microtitre plate included in the test kit. After a washing stage with PBS, which was used to remove sample material not bound by the antibodies, antibodies conjugated with peroxidase were incubated against human prothrombin binding to the free F1+2 determinants. […] This was then determined photometrically at a wavelength of 492 nm. […]

In general, Ki refers to a dissociation constant, usually derived from enzyme kinetics or from competition with a known ligand. A high value points to a looser hold on the target.

At Factor VIIa, `N=C(N)c1ccc(C=C2CCCCC(=Cc3ccc(C(=N)N)cc3)C2=O)cc1` [Pefabloc tPA/Xa, 2,7-bis(4-amidinobenzylidene)-cycloheptanone-(1)] returned a Ki of 140 µM. In the test on thrombin formation (inhibitor 100 μM), the “suppression of thrombin formation after kaolin activation” value is recorded as “totally suppressing thrombin formation”.
As for `COC(=O)[C@H](Cc1cccc(C(=N)N)c1)[C@@H](C)NC(=O)c1ccc(-c2cc[n+]([O-])cc2)cc1` (mixture of isomers) [Otamixaban, 2-(R)-(3-carbamimidoylbenyzyl)-3-(R)-[4-(1-oxypyridin-4-yl)benzoylamino]-butyric acid-methylester], the Ki at Factor VIIa came to 19 µM. Also, in the test with thrombin formation (concentration not stated in the sentence (FIGS. 1-3, 6)), the “suppression/blocking of thrombin formation after kaolin activation” value is “particularly suitable for blocking thrombin formation”.

These data come from patent US8129547B2, “Anticoagulation of human blood ex vivo” (priority 2006, dated 2012).
